Source: ChEMBL document CHEMBL1124973 (J Med Chem, 1990)

Assays:
[1] = target: T1, Muscarinic acetylcholine receptor (Rattus norvegicus) (UniProt P08482+P08483+P08485+P08911+P10980)
Description: In vitro binding affinity against muscarinic acetylcholine receptor from rat cortical homogenates using [3H]N-methylscopolamine as radioligand

[2] = target: T1, Muscarinic acetylcholine receptor (Rattus norvegicus); remark: listed apart in the source
Description: In vitro binding affinity against muscarinic acetylcholine receptor from rat cortical homogenates using [3H]oxotremorine-M radioligand

[3] = pKa value was measured; assay type: physicochemical
[4] = target: T1, Muscarinic acetylcholine receptor (Rattus norvegicus); experiment: The selectivity ratio of Kapp of NMS/OXO -M; assay type: protein assay

pKa [3]	Ratio [4]	SMILES	K app [1] [µM]	K app [2] [µM]
6	–	CN1CCN(C)C(c2nc(N)no2)C1 (stereo not given)	> 50	> 14
–	–	Cc1noc(C2CC3CCC2NC3)n1 (stereo in doubt; 22a)	1.1	0.0032
7.1	> 100	Nc1noc(C2CNCCN2)n1 (stereo not given)	> 50	0.45
–	–	Nc1noc(C2CN3CCCC2C3)n1 (stereo in doubt; 17a)	0.77	0.00067
–	–	Nc1noc(C2CN3CCC2C3)n1 (stereo in doubt; 16a)	0.031	< 4.3e-05
–	–	Cc1noc(C[N+](C)(C)C)n1	3.6	0.0014
–	–	Cc1noc(C2CN3CCC2C3)n1 (stereo in doubt; 15a)	0.1	9e-05
–	–	Cc1noc(C2=CCCNC2)n1	2.4	0.0016
–	–	Cc1noc(C2CCCN(C)C2)n1 (stereo not given)	54	0.43
–	–	CN1CCC=C(c2nc(N)no2)C1	2.8	0.0026
–	–	Nc1noc(C2=CCCNC2)n1	3.3	0.0017
–	–	CN1CCCC(c2nc(N)no2)C1 (stereo not given)	53	0.24
–	–	Nc1noc(C2CN3CCC2CC3)n1 (stereo not given)	0.6	0.00047
–	–	Nc1noc(C2CN3CCCC2C3)n1 (stereo in doubt; 17b)	1.8	0.003
7.1	–	Cc1noc(C2CNCCN2)n1 (stereo not given)	> 50	0.64
5.6	–	Cc1noc(CN(C)C)n1	> 50	3.3
–	–	Nc1noc(C2CN3CCC2C3)n1 (stereo in doubt; 16b)	1.6	0.0015
–	–	C[N+](C)(C)CCOC(N)=O	22	0.0049
6.2	> 6.6	Cc1noc(C2CN(C)CCN2)n1 (stereo not given)	> 50	7.6
–	–	Cc1noc(C2CCN(C)C2)n1 (stereo not given)	27	0.024
–	–	Cc1noc(C2CC3CCC2NC3)n1 (stereo in doubt; 22b)	5.2	0.0025
–	–	Cc1noc(C2CN3CCC2C3)n1 (stereo in doubt; 15b)	3.6	0.0021
–	–	Cc1noc(C2CCCCN(C)C2)n1 (stereo not given)	18	0.73
–	–	Nc1noc(C2CCNC2)n1 (stereo not given)	21	0.04
–	–	Cc1noc(C2CC3CCC2N(C)C3)n1 (stereo in doubt; 23b)	29	0.95
6.2	> 5.5	CN1CCNC(c2nc(N)no2)C1 (stereo not given)	> 50	9.1
–	–	Cc1noc(C2=CCCN(C)C2)n1	2.1	0.0054
–	–	CN1CCC(c2nc(N)no2)C1 (stereo not given)	17	0.01
–	–	Cc1noc(C2CN3CCC2CC3)n1 (stereo not given)	0.44	0.00096
–	–	Cc1noc(C2CC3CCC2N(C)C3)n1 (stereo in doubt; 23a)	8.9	0.3

SMILES	pKa [3]	Ratio [4]	K app [1] [µM]	K app [2] [µM]
Nc1noc(C2CN3CCN2CC3)n1 (stereo not given)	6.3	–	> 50	0.13
Cc1noc(C2CN3CCN2CC3)n1 (stereo not given)	6	–	36	0.44
